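Tested at 5 concentrations; 48 h exposure; 96-well plates; endpoints linearly interpolated, else capped at highest concentration. GI50 is the concentration that inhibits growth by half. TGI: concentration producing complete growth inhibition.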
Tests used:
Assay in all cases: inhibition of tumour cell growth, NCI panel, 48 h
HOP-92 NSCLC = tested on: HOP-92 NSCLC
SNB-75 CNS = tested on: SNB-75 CNS
NCI-H226 lung = tested on: NCI-H226 lung
HCC-2998 colon = tested on: HCC-2998 colon
HCT-116 colon = tested on: HCT-116 colon
HS 578T breast = tested on: HS 578T breast
HT29 colon = tested on: HT29 colon
MDA-MB-231 breast = tested on: MDA-MB-231 breast
ACHN renal = tested on: ACHN renal
OVCAR-3 ovarian = tested on: OVCAR-3 ovarian
TK-10 renal = tested on: TK-10 renal
RXF 393 renal = tested on: RXF 393 renal
SK-MEL-5 melanoma = tested on: SK-MEL-5 melanoma

SMILES | GI50 (HOP-92 NSCLC) | TGI (HOP-92 NSCLC) | GI50 (SNB-75 CNS) | TGI (SNB-75 CNS) | TGI (NCI-H226 lung) | TGI (HCC-2998 colon) | TGI (HCT-116 colon) | TGI (HS 578T breast) | TGI (HT29 colon) | TGI (MDA-MB-231 breast) | TGI (ACHN renal) | TGI (OVCAR-3 ovarian) | TGI (TK-10 renal) | TGI (RXF 393 renal) | TGI (SK-MEL-5 melanoma)
Cc1c(F)c(N)c2c(=O)cc(-c3ccc(NC(=O)CN(C)C)c(F)c3)oc2c1F | > 36.4 µM | 99.4 µM | 32.9 µM | > 100 µM | > 100 µM | > 100 µM | > 100 µM | > 100 µM | > 100 µM | > 83.7 µM | > 100 µM | > 60.9 µM | > 100 µM | > 100 µM | > 100 µM
COc1cccc(-c2cc(=O)c3ccccc3o2)c1N |  | > 100 µM |  | > 100 µM | > 100 µM | > 100 µM | > 100 µM | > 100 µM | > 100 µM | > 100 µM | > 100 µM | > 100 µM | > 100 µM | > 100 µM | > 100 µM
COc1cc(O)c(/C=N/N=C(\N)NO)c(OC)c1 |  | > 10 µM |  | > 10 µM | > 10 µM | > 10 µM | > 10 µM | > 10 µM | > 10 µM | > 10 µM | > 10 µM | > 10 µM | > 10 µM | > 10 µM | > 10 µM

From PubChem BioAssay (NCI)
